Where a SMILES comes first, the peptide text is derived from it. [ ]: non-standard residue; d: D form. Sar = CNCC(=O)O

Format in all cases: functional, cell-based
In data set [1] the target is T1, Solute carrier family 15 member 1 (Homo sapiens, UniProt P46059).
T1 sequence (P46059 whole entry): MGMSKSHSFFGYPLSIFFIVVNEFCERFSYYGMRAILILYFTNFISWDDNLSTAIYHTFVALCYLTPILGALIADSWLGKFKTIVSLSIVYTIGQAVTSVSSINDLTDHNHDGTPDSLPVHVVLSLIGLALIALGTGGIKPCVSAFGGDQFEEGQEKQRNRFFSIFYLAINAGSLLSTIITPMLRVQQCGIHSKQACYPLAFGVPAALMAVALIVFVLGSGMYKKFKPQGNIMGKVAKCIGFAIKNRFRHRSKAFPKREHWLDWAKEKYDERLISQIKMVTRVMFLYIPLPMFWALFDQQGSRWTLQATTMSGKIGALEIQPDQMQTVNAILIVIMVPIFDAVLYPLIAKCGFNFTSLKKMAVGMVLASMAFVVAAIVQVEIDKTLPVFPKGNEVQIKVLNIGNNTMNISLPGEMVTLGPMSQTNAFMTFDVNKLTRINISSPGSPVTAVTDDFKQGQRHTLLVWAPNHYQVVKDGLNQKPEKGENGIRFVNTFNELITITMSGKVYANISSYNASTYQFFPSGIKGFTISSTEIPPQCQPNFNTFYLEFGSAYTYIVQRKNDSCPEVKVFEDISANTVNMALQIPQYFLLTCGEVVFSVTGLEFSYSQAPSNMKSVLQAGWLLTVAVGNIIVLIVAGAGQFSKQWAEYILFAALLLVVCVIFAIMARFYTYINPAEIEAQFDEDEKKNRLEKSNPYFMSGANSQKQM
The experiment in a line: TP_TRANSPORTER: inhibition of VACV uptake in PEPT1-expressing CHO cells.

In data set [2] the target is T2, Solute carrier family 15 member 1 (Homo sapiens) (UniProt P46059).
T2 sequence (whole entry): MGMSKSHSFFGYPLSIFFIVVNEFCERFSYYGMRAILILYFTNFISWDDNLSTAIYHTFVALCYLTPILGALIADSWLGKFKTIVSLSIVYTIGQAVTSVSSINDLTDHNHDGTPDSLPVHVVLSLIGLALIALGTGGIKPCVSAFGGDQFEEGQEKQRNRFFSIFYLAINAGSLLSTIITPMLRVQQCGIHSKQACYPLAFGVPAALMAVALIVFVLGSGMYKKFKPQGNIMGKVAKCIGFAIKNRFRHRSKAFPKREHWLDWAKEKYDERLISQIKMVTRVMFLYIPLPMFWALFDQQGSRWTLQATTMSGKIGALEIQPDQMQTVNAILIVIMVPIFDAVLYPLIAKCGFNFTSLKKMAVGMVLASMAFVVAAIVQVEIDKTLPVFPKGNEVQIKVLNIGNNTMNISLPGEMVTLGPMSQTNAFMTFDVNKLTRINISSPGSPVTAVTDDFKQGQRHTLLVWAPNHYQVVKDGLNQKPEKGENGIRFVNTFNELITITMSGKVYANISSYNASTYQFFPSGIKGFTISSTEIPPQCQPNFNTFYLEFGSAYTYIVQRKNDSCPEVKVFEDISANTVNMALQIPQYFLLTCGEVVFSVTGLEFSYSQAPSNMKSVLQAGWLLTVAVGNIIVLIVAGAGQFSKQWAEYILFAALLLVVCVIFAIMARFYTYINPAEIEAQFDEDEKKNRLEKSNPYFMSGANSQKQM
The experiment in a line: TP_TRANSPORTER: inhibition of VACV uptake (VACV: 20 uM, Leu-Leu: 10000 uM) in PEPT1-expressing CHO cells.

Data set [3] has as its target T2, Solute carrier family 15 member 1 (Homo sapiens). The experiment in a line: TP_TRANSPORTER: inhibition of VACV uptake (VAVC: 20 uM, Ampicillin: 10000 uM) in PEPT1-expressing CHO cells.
Data set [4] has the same target. The experiment in a line: TP_TRANSPORTER: inhibition of VACV uptake (VACV: 20 uM, Cephalexin: 10000 uM) in PEPT1-expressing CHO cells.
For data set [5] the target is unchanged. The experiment in a line: TP_TRANSPORTER: inhibition of VACV uptake (VACV: 20 uM, Gly-Leu: 10000 uM) in PEPT1-expressing CHO cells.
Data set [6] has the same target. The experiment in a line: TP_TRANSPORTER: inhibition of VACV uptake (VACV: 20 uM, Gly-Gly: 10000 uM) in PEPT1-expressing CHO cells.
Substrate in data set [7]: CN(CC(=O)O)C(=O)CN
The experiment in a line: (§1) TP_TRANSPORTER: uptake in PEPT1-expressing CHO cells.

Substrate in data set [8]: CC(C)[C@H](N)C(=O)OCCOCn1cnc2c(=O)nc(N)[nH]c21
The data set is described as §1.

As for `CN(CC(=O)O)C(=O)CN` [GLYCYLSARCOSINE] (H-Gly-[Sar]-OH), in data set [1], the inhibitory constant (Ki) turned out to be 12.8 mM.
Regarding `CC(C)C[C@H](NC(=O)[C@@H](N)CC(C)C)C(=O)O`, the inhibition in data set [2] was greater than 80%.
Consider `CC1(C)S[C@@H]2[C@H](NC(=O)[C@H](N)c3ccccc3)C(=O)N2[C@H]1C(=O)O`, for which the inhibition in data set [3] is 50%.
`CC1=C(C(=O)O)N2C(=O)[C@@H](NC(=O)[C@H](N)c3ccc(O)cc3)[C@H]2SC1` [CEFADROXIL] gave a Ki in data set [1] of 9.1 mM. This counts as millimolar.
With `CC1=C(C(=O)O)N2C(=O)[C@@H](NC(=O)[C@H](N)c3ccccc3)[C@H]2SC1`, the inhibition in data set [4] is 50%.
For the molecule `CC(C)C[C@H](NC(=O)CN)C(=O)O`, in data set [5], the inhibition was greater than 80%.
For `NCC(=O)NCC(=O)O` (H-Gly-Gly-OH), the inhibition in data set [6] was greater than 80%.

B1: Solute carrier family 15 member 1 (Homo sapiens), P46059 (protein)
chain: MGMSKSHSFFGYPLSIFFIVVNEFCERFSYYGMRAILILYFTNFISWDDNLSTAIYHTFVALCYLTPILGALIADSWLGKFKTIVSLSIVYTIGQAVTSVSSINDLTDHNHDGTPDSLPVHVVLSLIGLALIALGTGGIKPCVSAFGGDQFEEGQEKQRNRFFSIFYLAINAGSLLSTIITPMLRVQQCGIHSKQACYPLAFGVPAALMAVALIVFVLGSGMYKKFKPQGNIMGKVAKCIGFAIKNRFRHRSKAFPKREHWLDWAKEKYDERLISQIKMVTRVMFLYIPLPMFWALFDQQGSRWTLQATTMSGKIGALEIQPDQMQTVNAILIVIMVPIFDAVLYPLIAKCGFNFTSLKKMAVGMVLASMAFVVAAIVQVEIDKTLPVFPKGNEVQIKVLNIGNNTMNISLPGEMVTLGPMSQTNAFMTFDVNKLTRINISSPGSPVTAVTDDFKQGQRHTLLVWAPNHYQVVKDGLNQKPEKGENGIRFVNTFNELITITMSGKVYANISSYNASTYQFFPSGIKGFTISSTEIPPQCQPNFNTFYLEFGSAYTYIVQRKNDSCPEVKVFEDISANTVNMALQIPQYFLLTCGEVVFSVTGLEFSYSQAPSNMKSVLQAGWLLTVAVGNIIVLIVAGAGQFSKQWAEYILFAALLLVVCVIFAIMARFYTYINPAEIEAQFDEDEKKNRLEKSNPYFMSGANSQKQM
In the case of B1, the Km in data set [7] is 3130 µM; in data set [8], 1640 µM.
